{
  "source": "paper PMC4977052",
  "about": "“On the Utility of ToxCast™ and ToxPi as Methods for Identifying New Obesogens” (Environmental Health Perspectives, 2016)",
  "molecular_target": "T1, GAL4-mPPARγ (Mus musculus, UniProt P37238)",
  "T1 construct": "expressed in transfected cells; host or cells: COS7",
  "T1 sequence (P37238 with tags, fused parts or gaps limits assumed)": "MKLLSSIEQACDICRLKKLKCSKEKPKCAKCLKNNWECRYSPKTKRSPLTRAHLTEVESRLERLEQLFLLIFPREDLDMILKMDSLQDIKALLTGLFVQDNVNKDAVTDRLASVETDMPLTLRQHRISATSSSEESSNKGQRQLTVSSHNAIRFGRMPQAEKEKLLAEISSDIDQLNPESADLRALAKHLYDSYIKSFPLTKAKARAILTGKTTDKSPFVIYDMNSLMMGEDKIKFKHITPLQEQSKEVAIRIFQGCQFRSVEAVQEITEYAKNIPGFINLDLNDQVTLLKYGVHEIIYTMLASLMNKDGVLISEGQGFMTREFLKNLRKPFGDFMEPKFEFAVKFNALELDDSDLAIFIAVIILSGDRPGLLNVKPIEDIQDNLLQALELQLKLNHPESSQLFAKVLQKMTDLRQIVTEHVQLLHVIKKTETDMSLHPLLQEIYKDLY",
  "experiment": "GAL4-mPPARγ antagonism in competition with 50 nM rosiglitazone, transiently transfected COS7 cells",
  "type": "cell-based",
  "method": "pCMX-Gal4, pCMX-Gal4-mPPARγ, and pCMX-Gal4-hRXRα were previously described ([Grün et al. 2006]). Transient transfections were performed in COS7 cells as described ([Chamorro-García et al. 2012]). Briefly, COS7 cells were seeded at 15,000 cells per well in 96-well tissue culture plates in 10% calf bovine serum. The following day, cells were transfected in Opti-MEM at ~ 90% confluency. One microgram of CMX-GAL4 effector plasmid was co-transfected with 5 μg tk-(MH100)4-luciferase reporter and 5 μg of CMX-β-galactosidase transfection control plasmids in Opti-MEM® using Lipofectamine® 2000 reagent (Invitrogen™ Life Technologies, Carlsbad, CA, USA), following the manufacturer’s recommended protocol. All chemicals were solvated in dimethyl sulfoxide (DMSO). After overnight incubation, the medium was replaced with Dulbecco’s Modified Eagle Medium (DMEM; HyClone, Logan, UT, USA), 10% resin charcoal stripped fetal bovine serum (FBS) plus ligands at concentrations indicated in the figure legends for an additional 24 hr. DMSO concentration was maintained at 0.05% across all chemical treatments. Cells were lysed and assayed for luciferase and β-galactosidase activity as previously described ([Forman et al. 1995]). All transfections were performed in triplicate and reproduced in multiple experiments. Data are reported as fold induction or reduction over vehicle ([…]) controls ± SEM (standard error of the mean) using standard propagation of error ([Bevington and Robinson 2003]). […] The EC50, EC10, IC50, and IC10 values from NCGC and ToxCast™ are reported from gain AC50 and AC10 values in the ToxCast™ 2014 release ([Filer et al. 2014]).\nFigure 1 ToxCast™ Chemical Activity on PPARγ. The ability of a graded dose series of ToxCast™ chemicals to (A) activate or (B) antagonize GAL4-mPPARγ was tested in transiently transfected COS7 cells. (A, B) Data points are averages of triplicate transfections (three biological replicates). […] Data are depicted as (A) fold induction or (B) reduction over vehicle (0.05% DMSO) controls ± SEM. (A) ToxCast™ chemicals were tested in 3-fold serial dilutions from 100 μM through 0.137 μM, with the final data point being 0.05% DMSO. Rosiglitazone serves as a positive control activator. (B) ToxCast™ chemicals were tested in 3-fold serial dilutions from 100 μM, in competition with 50 nM rosiglitazone (Rosi). […] (C) EC50, EC10, IC50, and IC10 values calculated from A and B are reported and compared to commercial assays (see Figure S1). Note: ATG, Attagene GAL-PPARγ activation assay; NCGC, GeneBLAzer® agonist (EC values) or antagonist (IC values) assays. Triphenyltin was previously published ([Kanayama et al. 2005]).",
  "data": [
    {"smiles": "O=[N+]([O-])c1cc(C(F)(F)F)c(Cl)c([N+](=O)[O-])c1Nc1ncc(C(F)(F)F)cc1Cl", "note": "[Fluazinam]", "values": [
      {"measurement": "IC50", "result": 7.2, "unit": "µM"},
      {"measurement": "AC50", "setting": "Activation AC50 (PPARγ antagonists), Cos-7 transient transfection, competition with 50 nM rosiglitazone", "result": 7.2, "unit": "µM"},
      {"measurement": "Antagonism of PPARγ", "setting": "COS7, competition against 50 nM rosiglitazone", "result": "weak antagonists"},
      {"measurement": "PPARγ antagonists: IC10, Fig 1B", "setting": "COS7, in competition with 50 nM rosiglitazone, computed from IC50", "result": 4.41, "unit": "µM"},
      {"measurement": "Activation COS7 (result in words): PPARγ antagonist", "setting": "Cos-7 transient transfection, competition with 50 nM rosiglitazone", "result": "PPARγ antagonist"}
    ]}
  ]
}
